Experimental data as given in publication PMC11459967 (Antimicrobial Agents and Chemotherapy, 2024).

Columns and labels:
[1] = system: SARS-CoV-2 (USA-WA1/2020 variant); test: Cytopathic effect (CPE) live virus cell viability assay in Vero-E6 cells; format: cell-based; conditions: for EC50: Severe acute respiratory syndrome coronavirus 2, Vero C1008, 96 h, read-out: EC50 viral CPE assay
SARS-CoV-2 Mpro = SARS-CoV-2 Mpro (Severe acute respiratory syndrome coronavirus 2, UniProt P0DTC1); test: biochemical; format: biochemical

| SMILES | EC50 [1] [µM] | IC50 (SARS-CoV-2 Mpro) [µM] | further results |
| --- | --- | --- | --- |
| COc1cccc2[nH]c(C(=O)N[C@@H](CC(C)C)C(=O)N[C@@H](C[C@@H]3CCNC3=O)C(=O)COC(=O)c3c(Cl)cccc3Cl)cc12 [Compound 18, reference compound] | 3.4 ± 1.4 | 0.011 ± 0.0007 |  |
| O=C(CN1C(=O)[C@@H](NC(=O)c2ccc3ccccc3n2)COc2ccccc21)N[C@@H](C[C@@H]1CCNC1=O)C(=O)COC(=O)c1c(Cl)cccc1Cl [Compound 20] | 44.5 ± 7.4 | 0.58 ± 0.04 |  |
| CC(C)C[C@H](NC(=O)OCc1ccccc1)C(=O)N[C@@H](C[C@@H]1CCNC1=O)C(O)S(=O)(=O)O (some centres unmarked) [GC-376, reference compound] | 1.8 ± 0.4 | 0.018 ± 0.0015 | time to achieve maximum inhibition (SARS-CoV-2 Mpro; Mpro enzymatic assay): ≤ 10 min |
| O=C(CN1C(=O)[C@@H](NC(=O)c2ccccc2)COc2ccccc21)N[C@@H](C[C@@H]1CCNC1=O)C(=O)COC(=O)c1c(Cl)cccc1Cl [Compound 19] | 25 ± 5 | 0.62 ± 0.048 |  |
| O=C(CN1C(=O)[C@@H](NC(=O)OCc2ccccc2)COc2ccccc21)N[C@@H](C[C@@H]1CCNC1=O)C(=O)COc1cc(C(F)(F)F)nn1-c1ccc(F)cc1 [Compound 21] | 73.5 ± 12.4 | 3.1 | fold less Mpro activity compared to 1 (SARS-CoV-2 Mpro; ratio of Mpro IC50 versus compound 1): more than 10 fold |
| O=C(CN1C(=O)C(NC(=O)OCc2ccccc2)COc2ccccc21)NC(CC1CCNC1=O)C(=O)COC(=O)c1c(Cl)cccc1Cl (centres unmarked) [Compound 1] | 7.5 ± 2 | 0.23 ± 0.018 | fold reduced in activity compared to 18 [1]: 2.2 fold; fold reduced in activity compared to GC-376 [1]: 4.1 fold; inhibition at 5 µM ([1]; Severe acute respiratory syndrome coronavirus 2, Vero C1008, single treatment, 5 µM of 1, 96 h, three independent experiments, read-out: inhibition of CPE in infected cells): 19.5 ± 13.7%; fold less potent (Mpro) than compound 18 (SARS-CoV-2 Mpro; ratio of Mpro IC50 versus Pfizer lead compound 18): ~ 20 fold |
| CCC(CC)COC(=O)[C@H](C)N[P@](=O)(OC[C@H]1O[C@@](C#N)(c2ccc3c(N)ncnn23)[C@H](O)[C@@H]1O)Oc1ccccc1 [Remdesivir, reference compound] | 2.7 ± 0.5 |  | inhibition at 1 µM ([1]; Severe acute respiratory syndrome coronavirus 2, Vero C1008, single treatment, 1 µM of remdesivir, 96 h, three independent experiments, read-out: inhibition of CPE in infected cells): 3.6 ± 3.1% |
